# From a melting point compilation (Tetko et al.; mined from patent text by program, amines drawn as free bases though some values may be those of a salt)
row,SMILES,melting point [°C]
1,COc1cc(COc2nn(Cc3ccccc3)cc2C(N)=O)ccc1OCc1nc(-c2ccccc2)oc1C,164 to 165
2,CCOc1cc(C(CC(=O)O)N2Cc3ccccc3C2=O)ccc1OC (stereo not drawn),194
3,Cc1ccc(NC(=O)Nc2cccc(C(F)(F)F)c2)cc1/C=C/n1cnc2c(NC3CC3)ncnc21,160 to 162
4,CC(C)n1nc(-c2c(-c3ccccc3)nn3ccc(N4CCN(S(=O)(=O)c5ccccc5)CC4)cc23)ccc1=O,219 to 220
5,CC(=O)CC(=O)Nc1cccc(C(F)(F)F)c1,109 to 110
6,COc1cc2c(cc1C(C)(C)C)CCC2Cc1c[nH]cn1 (stereo not drawn),174 to 184
7,CC1(C)Oc2ccc(C#N)cc2[C@@H](OC2=CC(=O)CC2)[C@@H]1O (relative stereo),154 to 156
8,O=C(NCC1(c2ccccc2)CCCC1)Nc1ccc(F)cc1F,160 to 161
9,COC(=O)CCc1ccc(OCc2nc(-c3ccccc3)c(-c3ccccc3)o2)cc1,92 to 95
10,COC(=O)c1ccc(C(=NO)c2ccc(C(=O)OC)cc2)cc1,177 to 178
11,COC(=O)N[C@@H](Cc1ccccc1)[C@H](O)CN1C[C@H]2CCCC[C@H]2C[C@H]1C(=O)NOC(C)(C)C,194 to 195
12,CCn1cc(CN(C(=O)C2CCCc3c(O)cccc32)c2ccc(C(C)C)cc2)cn1 (stereo not drawn),212 to 215
13,CC(C)(C)c1cc(OCc2cccc(C(=O)O)c2)cc(C(C)(C)C)c1,167 to 169
14,CCCCCCCNC1=CC(=O)c2c(OC)ccc(OC)c2C1=O,74 to 75
15,Cc1cc(=O)n(-c2cc(OC(C)C)c(Cl)cc2F)c(=O)n1C,149 to 151
16,COc1ccc(N2CN(c3ccccc3)C(N)=C3C=NN=C32)cc1,204 to 206
17,CCCc1cc(C=Cc2ccc3ccccc3n2)cc(OCC(=O)O)c1,97 to 98
18,CC(C)C(=O)Oc1ccc2c(c1)OCN(CCO[N+](=O)[O-])C2=O,70 to 71
19,Nc1ccc(OCc2ccccc2)cc1C=C(Br)Br,67 to 68

row,SMILES,melting point [°C]
1,O=C1CC(c2cccc(-n3ccnc3)c2)=Nc2ccc(C#Cc3ccccc3F)cc2N1,201 to 203
2,CN1CCN(C(=O)OC2c3ccccc3C(=O)N2c2ccc3ccc(Br)nc3n2)CC1 (stereo not drawn),260
3,CC(C)(C)NCC(O)COc1cccc2nc[nH]c12 (stereo not drawn),203 to 205
4,O=S(=O)(Nc1ccc(Oc2cccc3cccnc23)cc1)c1ccc(Cl)cc1,220
5,O=C(Cn1c(-c2cccc(Cl)c2)nc2cccnc21)Nc1ccccc1,211 to 212
6,O=P1(O)Oc2c(Cl)cc(Cc3ccccc3)cc2-c2ccccc21,240
7,CC(C)c1nc(COC(N)=O)n(CCOC(N)=O)c1Sc1cc(Cl)cc(Cl)c1,159 to 161
8,COc1ccc(-n2nc(C(=O)c3ccccc3)cc2-c2ccc(C)cc2)cc1,138 to 139
9,Cc1cc(Oc2ccc(Cl)c(Cl)c2)ccc1S(C)(=O)=O,154 to 156
10,Nc1c2c(nc3ccc(F)cc13)-c1ccccc1CC2,158 to 159
11,O=C(C=Cc1ccccc1)NN1CC(=O)NC1=O,276 to 278
12,CN(C)c1c(-c2ccccc2)sc2ccc(Cl)cc12,79 to 81
13,Cc1cc(-c2ccccc2)nc(N2CCN(c3ccc(O)cc3)CC2)c1C#N,207
14,COc1cc2nc(N3CCC(N4C(=O)C(C)C(C)C4=O)CC3)nc(N)c2cc1OC (stereo not drawn),267 to 268
15,Cc1cc(C)n(-c2cnc(CN(C)C)c(Nc3ccc(Cl)cc3)n2)n1,112 to 114
16,Cc1cc(Sc2sc(-c3ccc(C(F)(F)F)cc3)nc2C)ccc1Cc1nn[nH]n1,248
17,O=C(O)c1cc(OCc2ccccc2)c(C(=O)c2ccccc2)c([N+](=O)[O-])c1,205 to 207
18,[N-]=[N+]=NC[C@H]1CN(c2cccc(F)c2)C(=O)O1,81 to 82
19,CCC(CC)n1nnc2c(Oc3c(C)cc(C)cc3C)nc(C)nc21,92
